Paper PMC12361428 (Nature Communications, 2025)
Where “and” joins values, the source holds several entries; their conditions need not be identical. Identical values can stand only once.

Assays:
Nluc-A3AR V169E^45.53 = molecular target: T1, Nluc-A3AR V169E^45.53 (Homo sapiens, UniProt P0DMS8, V169E); assay: biochemical; format: binding
T1 construct: expressed in transfected cells; host or cells: HEK293a
Protocol: (§1) All experiments were performed in duplicate.
(§2) Data were expressed as the mean ± standard error. All binding and Trupath data were analysed using the nonlinear regression curve-fitting programme with Prism 10 (GraphPad, San Diego, CA, USA). For nanoBRET saturation binding experiments, specific binding was calculated by subtracting non-specific binding (defined as binding in the presence of 10 µM MRS1220) from total binding. Specific binding data in each experiment were then normalised to the maximal binding (Bmax) of WT and fit to a one-site specific binding equation: Y =Bmax*[X]/(Kd + [X]). For nanoBRET competition binding experiments, data were normalised to total and non-specific binding responses and fit to a one-site—Fit Ki equation. Trupath's experimental data was baseline-corrected to the initial four baseline reads and then adjusted to the buffer control response. The area under the curve (AUC) for each response was calculated and plotted with a non-linear regression curve (log[agonist] vs response, three-parameter model), using the equation: Y = Bottom + (Top–Bottom)/(1 + 10^((LogEC50-X))). Here, X represents the log dose of the agonist, Y is the BRET2 AUC response, Top and Bottom are the curve plateaus, and EC50 is the agonist concentration yielding a response halfway between the Bottom and Top values. […] Significant differences vs WT were determined by one-way ANOVA with a Dunnett’s multiple comparison test. Significance levels are indicated as follows: P ≤ 0.0001****, P = 0.0001–0.001***, P = 0.001–0.01**, and P = 0.01–0.05*.

Nluc-A3AR S271A^7.42 = molecular target: T2, Nluc-A3AR S271A^7.42 (Homo sapiens, UniProt P0DMS8, S271A); assay: biochemical; format: binding
T2 construct: expressed in transfected cells; host or cells: HEK293a
Protocol: as §1
(§3) Data were expressed as the mean ± standard error. All binding and Trupath data were analysed using the nonlinear regression curve-fitting programme with Prism 10 (GraphPad, San Diego, CA, USA). For nanoBRET saturation binding experiments, specific binding was calculated by subtracting non-specific binding (defined as binding in the presence of 10 µM MRS1220) from total binding. Specific binding data in each experiment were then normalised to the maximal binding (Bmax) of WT and fit to a one-site specific binding equation: Y =Bmax*[X]/(Kd + [X]). For nanoBRET competition binding experiments, data were normalised to total and non-specific binding responses and fit to a one-site—Fit Ki equation. […] Significant differences vs WT were determined by one-way ANOVA with a Dunnett’s multiple comparison test.

Nluc-A3AR M174A^5.35 = molecular target: T3, Nluc-A3AR M174A^5.35 (Homo sapiens, UniProt P0DMS8, M174A); assay: biochemical; format: binding
T3 construct: expressed in transfected cells; host or cells: HEK293a
Protocol: as §1
(§4) Data were expressed as the mean ± standard error. All binding and Trupath data were analysed using the nonlinear regression curve-fitting programme with Prism 10 (GraphPad, San Diego, CA, USA). For nanoBRET saturation binding experiments, specific binding was calculated by subtracting non-specific binding (defined as binding in the presence of 10 µM MRS1220) from total binding. Specific binding data in each experiment were then normalised to the maximal binding (Bmax) of WT and fit to a one-site specific binding equation: Y =Bmax*[X]/(Kd + [X]). For nanoBRET competition binding experiments, data were normalised to total and non-specific binding responses and fit to a one-site—Fit Ki equation. Trupath's experimental data was baseline-corrected to the initial four baseline reads and then adjusted to the buffer control response. The area under the curve (AUC) for each response was calculated and plotted with a non-linear regression curve (log[agonist] vs response, three-parameter model), using the equation: Y = Bottom + (Top–Bottom)/(1 + 10^((LogEC50-X))). Here, X represents the log dose of the agonist, Y is the BRET2 AUC response, Top and Bottom are the curve plateaus, and EC50 is the agonist concentration yielding a response halfway between the Bottom and Top values. […] The efficacy of the agonists (τA) was separately calculated using the Black–Leff operational model of agonism[79] using KA values from Table 2 and then corrected for receptor expression relative to WT using Bmax values from Table 1[80]. Significant differences vs WT were determined by one-way ANOVA with a Dunnett’s multiple comparison test.

Nluc-A3AR H95A^3.37 = molecular target: T4, Nluc-A3AR H95A^3.37 (Homo sapiens, UniProt P0DMS8, H95A); assay: biochemical; format: binding
T4 construct: expressed in transfected cells; host or cells: HEK293a
Protocol: as §1, §2

Nluc-A3AR S73A^2.65 = molecular target: T5, Nluc-A3AR S73A^2.65 (Homo sapiens, UniProt P0DMS8, S73A); assay: biochemical; format: binding
T5 construct: expressed in transfected cells; host or cells: HEK293a
Protocol: as §1, §3

Nluc-A3AR T94A^3.36 = molecular target: T6, Nluc-A3AR T94A^3.36 (Homo sapiens, UniProt P0DMS8, T94A); assay: biochemical; format: binding
T6 construct: expressed in transfected cells; host or cells: HEK293a
Protocol: as §1, §4

Nluc-A3AR WT = molecular target: T7, Nluc-A3AR WT (Homo sapiens, UniProt P0DMS8); assay: biochemical; format: binding
T7 construct: expressed in transfected cells; host or cells: HEK293a
Protocol: as §1, §3

Nluc-A3AR Y15A^1.35 = molecular target: T8, Nluc-A3AR Y15A^1.35 (Homo sapiens, UniProt P0DMS8, Y15A); assay: biochemical; format: binding
T8 construct: expressed in transfected cells; host or cells: HEK293a
Protocol: as §1, §4

Nluc-A3AR Y265A^7.36 = molecular target: T9, Nluc-A3AR Y265A^7.36 (Homo sapiens, UniProt P0DMS8, Y265A); assay: biochemical; format: binding
T9 construct: expressed in transfected cells; host or cells: HEK293a
Protocol: as §1, §4

A3AR-BRIL = molecular target: T10, A3AR-BRIL (Homo sapiens, UniProt P0DMS8); assay: NanoBRET competition binding vs XAC-630; details: for XAC-630 NanoBRET binding, normalised (Figure S2H), individual replicates: A3AR-BRIL
T10 sequence (P0DMS8 1-318): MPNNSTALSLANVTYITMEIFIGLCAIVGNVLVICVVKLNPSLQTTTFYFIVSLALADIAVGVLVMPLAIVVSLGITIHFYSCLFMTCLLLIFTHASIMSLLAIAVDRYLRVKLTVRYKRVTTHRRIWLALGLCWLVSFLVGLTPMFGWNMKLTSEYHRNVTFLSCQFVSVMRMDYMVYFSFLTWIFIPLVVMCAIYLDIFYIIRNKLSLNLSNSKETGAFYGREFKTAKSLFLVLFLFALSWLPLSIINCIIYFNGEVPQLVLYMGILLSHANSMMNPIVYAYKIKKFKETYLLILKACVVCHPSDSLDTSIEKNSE
Protocol: as §1, §3

Nluc-A3AR H95F^3.37 = molecular target: T11, Nluc-A3AR H95F^3.37 (Homo sapiens, UniProt P0DMS8, H95F); assay: biochemical; format: binding
T11 construct: expressed in transfected cells; host or cells: HEK293a
T11 sequence (P0DMS8 whole entry H95F): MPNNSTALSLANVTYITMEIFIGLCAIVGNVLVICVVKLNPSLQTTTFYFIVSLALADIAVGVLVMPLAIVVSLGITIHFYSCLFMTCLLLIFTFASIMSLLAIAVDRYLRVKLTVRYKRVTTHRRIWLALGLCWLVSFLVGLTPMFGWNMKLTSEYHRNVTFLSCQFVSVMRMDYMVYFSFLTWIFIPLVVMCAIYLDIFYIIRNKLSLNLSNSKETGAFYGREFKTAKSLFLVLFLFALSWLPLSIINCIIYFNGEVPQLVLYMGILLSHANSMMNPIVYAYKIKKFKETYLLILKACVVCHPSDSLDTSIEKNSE
Protocol: as §1, §2

T2 sequence (P0DMS8 whole entry S271A): as the sequence (P0DMS8 whole entry H95F) above, with F95H, S271A counted along it
T8 sequence (P0DMS8 whole entry Y15A): as the sequence (P0DMS8 whole entry H95F) above, with Y15A, F95H counted along it
T1 sequence (P0DMS8 whole entry V169E): as the sequence (P0DMS8 whole entry H95F) above, with F95H, V169E counted along it
T6 sequence (P0DMS8 whole entry T94A): as the sequence (P0DMS8 whole entry H95F) above, with T94A, F95H counted along it
T9 sequence (P0DMS8 whole entry Y265A): as the sequence (P0DMS8 whole entry H95F) above, with F95H, Y265A counted along it
T3 sequence (P0DMS8 whole entry M174A): as the sequence (P0DMS8 whole entry H95F) above, with F95H, M174A counted along it
T5 sequence (P0DMS8 whole entry S73A): as the sequence (P0DMS8 whole entry H95F) above, with S73A, F95H counted along it
T4 sequence (P0DMS8 whole entry H95A): as the sequence (P0DMS8 whole entry H95F) above, with F95A counted along it

CCCn1c(=O)c2c(nc3cc(OC)ccn32)n(CCCCNC(=O)c2ccc(S(=O)(=O)F)cc2)c1=O [LUF7602]
pKi (Nluc-A3AR V169E^45.53; V169E): 7.2 ± 0.05 (3)
ΔpKi relative to WT (Nluc-A3AR V169E^45.53; V169E): -0.293
remaining activity at 0.06026 µM (Nluc-A3AR V169E^45.53; read-out: normalised XAC-630 binding, V169E, log[LUF7602] -7.22 M): 87.5%
remaining activity at 0.006026 µM (Nluc-A3AR V169E^45.53; read-out: normalised XAC-630 binding, V169E, log[LUF7602] -8.22 M): 97.5%
remaining activity at 0.0006026 µM (Nluc-A3AR V169E^45.53; read-out: normalised XAC-630 binding, V169E, log[LUF7602] -9.22 M): 105%
remaining activity at 60.26 pM (Nluc-A3AR V169E^45.53; read-out: normalised XAC-630 binding, V169E, log[LUF7602] -10.22 M): 100%
remaining activity at 0.6026 µM (Nluc-A3AR V169E^45.53; read-out: normalised XAC-630 binding, V169E, log[LUF7602] -[…]): 17%
ΔpKi relative to WT (Nluc-A3AR S271A^7.42; S271A): 0.423
pKi (Nluc-A3AR S271A^7.42; S271A, 40 nM XAC-630): 7.9 ± 0.09 (3)
remaining activity at 60.26 pM (Nluc-A3AR S271A^7.42; read-out: normalised XAC-630 binding, S271A, log[LUF7602] -10.22 M): 100%
remaining activity at 0.6026 µM (Nluc-A3AR S271A^7.42; read-out: normalised XAC-630 binding, S271A, log[LUF7602] -[…]): 5.71%
pKi (Nluc-A3AR M174A^5.35; M174A): 6.5 ± 0.09 (3)
reduction of binding affinity vs WT (Nluc-A3AR M174A^5.35; M174A): 10 fold
ΔpKi relative to WT (Nluc-A3AR M174A^5.35; M174A): -0.957
remaining activity at 0.06026 µM (Nluc-A3AR M174A^5.35; read-out: normalised XAC-630 binding, M174A, log[LUF7602] -7.22 M): 96.7%
remaining activity at 0.0006026 µM (Nluc-A3AR M174A^5.35; read-out: normalised XAC-630 binding, M174A, log[LUF7602] -9.22 M): 112%
remaining activity at 60.26 pM (Nluc-A3AR M174A^5.35; read-out: normalised XAC-630 binding, M174A, log[LUF7602] -10.22 M): 100%
remaining activity at 0.6026 µM (Nluc-A3AR M174A^5.35; read-out: normalised XAC-630 binding, M174A, log[LUF7602] -[…]): 44.9%
pKi (Nluc-A3AR H95A^3.37; H95A): 6.2 ± 0.2 (3)
reduction of binding affinity vs WT (Nluc-A3AR H95A^3.37; H95A): ~ 10 fold
ΔpKi relative to WT (Nluc-A3AR H95A^3.37; H95A): -1.328
remaining activity at 0.1 µM (Nluc-A3AR H95A^3.37; read-out: normalised XAC-630 binding, H95A, log[LUF7602] -7 M): 98.1%
remaining activity at 0.01 µM (Nluc-A3AR H95A^3.37; read-out: normalised XAC-630 binding, H95A, log[LUF7602] -8 M): 113%
remaining activity at 0.001 µM (Nluc-A3AR H95A^3.37; read-out: normalised XAC-630 binding, H95A, log[LUF7602] -9 M): 104%
remaining activity at 0.0001 µM (Nluc-A3AR H95A^3.37; read-out: normalised XAC-630 binding, H95A, log[LUF7602] -10 M): 100%
pKi (Nluc-A3AR S73A^2.65; S73A): 7.2 ± 0.06 (3)
ΔpKi relative to WT (Nluc-A3AR S73A^2.65; S73A): -0.31
remaining activity at 0.06026 µM (Nluc-A3AR S73A^2.65; read-out: normalised XAC-630 binding, S73A, log[LUF7602] -7.22 M): 71.4%
remaining activity at 0.006026 µM (Nluc-A3AR S73A^2.65; read-out: normalised XAC-630 binding, S73A, log[LUF7602] -8.22 M): 90.3%
remaining activity at 0.0006026 µM (Nluc-A3AR S73A^2.65; read-out: normalised XAC-630 binding, S73A, log[LUF7602] -9.22 M): 91.8%
remaining activity at 60.26 pM (Nluc-A3AR S73A^2.65; read-out: normalised XAC-630 binding, S73A, log[LUF7602] -10.22 M): 100%
remaining activity at 0.6026 µM (Nluc-A3AR S73A^2.65; read-out: normalised XAC-630 binding, S73A, log[LUF7602] -[…]): 19.1%
pKi (Nluc-A3AR T94A^3.36; T94A): 7.3 ± 0.05 (3)
ΔpKi relative to WT (Nluc-A3AR T94A^3.36; T94A): -0.208
remaining activity at 0.06026 µM (Nluc-A3AR T94A^3.36; read-out: normalised XAC-630 binding, T94A, log[LUF7602] -7.22 M): 77.1%
remaining activity at 0.006026 µM (Nluc-A3AR T94A^3.36; read-out: normalised XAC-630 binding, T94A, log[LUF7602] -8.22 M): 100%
remaining activity at 0.0006026 µM (Nluc-A3AR T94A^3.36; read-out: normalised XAC-630 binding, T94A, log[LUF7602] -9.22 M): 87.2%
remaining activity at 60.26 pM (Nluc-A3AR T94A^3.36; read-out: normalised XAC-630 binding, T94A, log[LUF7602] -10.22 M): 100%
pKi (Nluc-A3AR WT; WT): 7.5 ± 0.05 (4)
ΔpKi relative to WT (Nluc-A3AR WT; WT): 0
pKi Mean (Figure S2H) (Nluc-A3AR WT; WT, n 3): 7.306
XAC-630 NanoBRET binding, normalised (Figure S2H), individual replicates (Nluc-A3AR WT; log LUF7602 -5, A3AR-WT): 0
normalised XAC-630 binding at 10 µM (Nluc-A3AR WT; read-out: XAC-630 NanoBRET binding, normalised (Figure S2H), individual replicates, log LUF7602 -5, A3AR-WT): 0%
normalised XAC-630 binding at 0.1 µM (Nluc-A3AR WT; read-out: XAC-630 NanoBRET binding, normalised (Figure S2H), individual replicates, log LUF7602 -7, A3AR-WT): 59.3%
normalised XAC-630 binding at 0.01 µM (Nluc-A3AR WT; read-out: XAC-630 NanoBRET binding, normalised (Figure S2H), individual replicates, log LUF7602 -8, A3AR-WT): 78%
normalised XAC-630 binding at 0.0001 µM (Nluc-A3AR WT; read-out: XAC-630 NanoBRET binding, normalised (Figure S2H), individual replicates, log LUF7602 -10, A3AR-WT): 89.4%
normalised XAC-630 binding at 0.06026 µM (Nluc-A3AR WT; read-out: normalised XAC-630 binding, WT, log[LUF7602] -7.22 M): 69.6%
normalised XAC-630 binding at 0.006026 µM (Nluc-A3AR WT; read-out: normalised XAC-630 binding, WT, log[LUF7602] -8.22 M): 96.8%
normalised XAC-630 binding at 0.0006026 µM (Nluc-A3AR WT; read-out: normalised XAC-630 binding, WT, log[LUF7602] -9.22 M): 90.4%
normalised XAC-630 binding at 60.26 pM (Nluc-A3AR WT; read-out: normalised XAC-630 binding, WT, log[LUF7602] -10.22 M): 100%
pKi (Nluc-A3AR Y15A^1.35; Y15A): 6.6 ± 0.2 (4)
reduction of binding affinity vs WT (Nluc-A3AR Y15A^1.35; Y15A): 10 fold
ΔpKi relative to WT (Nluc-A3AR Y15A^1.35; Y15A): -0.882
remaining activity at 60.26 pM (Nluc-A3AR Y15A^1.35; read-out: normalised XAC-630 binding, Y15A, log[LUF7602] -10.22 M): 100%
pKi (Nluc-A3AR Y265A^7.36; Y265A): 6.3 ± 0.07 (3)
reduction of binding affinity vs WT (Nluc-A3AR Y265A^7.36; Y265A): 15 fold
ΔpKi relative to WT (Nluc-A3AR Y265A^7.36; Y265A): -1.2
remaining activity at […] (Nluc-A3AR Y265A^7.36; read-out: normalised XAC-630 binding, Y265A, log[LUF7602] -9.5 M): 100%
pKi Mean (Figure S2H) (A3AR-BRIL; BRIL, n 3): 6.94
XAC-630 NanoBRET binding, normalised (Figure S2H), individual replicates (A3AR-BRIL; log LUF7602 -5): 0
XAC-630 NanoBRET binding, normalised (Figure S2H), individual replicates (A3AR-BRIL; log LUF7602 -6): 22.1463 and 17.4094 and 21.7431
XAC-630 NanoBRET binding, normalised (Figure S2H), individual replicates (A3AR-BRIL; log LUF7602 -7): 61.493 and 91.0533 and 82.952
XAC-630 NanoBRET binding, normalised (Figure S2H), individual replicates (A3AR-BRIL; log LUF7602 -8): 66.0931 and 109.671 and 102.784
XAC-630 NanoBRET binding, normalised (Figure S2H), individual replicates (A3AR-BRIL; log LUF7602 -9): 71.5361 and 107.819 and 104.301
XAC-630 NanoBRET binding, normalised (Figure S2H), individual replicates (A3AR-BRIL; log LUF7602 -10): 72.9226 and 106.236 and 100.479
pKi (Nluc-A3AR H95F^3.37; H95F): 6.4 ± 0.09 (3)
reduction of binding affinity vs WT (Nluc-A3AR H95F^3.37; H95F): ~ 10 fold
ΔpKi relative to WT (Nluc-A3AR H95F^3.37; H95F): -1.06
remaining activity at 0.006026 µM (Nluc-A3AR H95F^3.37; read-out: normalised XAC-630 binding, H95F, log[LUF7602] -8.22 M): 88.8%
remaining activity at 60.26 pM (Nluc-A3AR H95F^3.37; read-out: normalised XAC-630 binding, H95F, log[LUF7602] -10.22 M): 100%
remaining activity at 0.6026 µM (Nluc-A3AR H95F^3.37; read-out: normalised XAC-630 binding, H95F, log[LUF7602] -[…]): 47%
